In the assay the test system is PBMCs from HCMV seropositive subjects. Briefly: ex vivo IFN-γ Fluorospot assay. The following applies: 19 HCMV seropositive subjects, individual peptide 10 ug/ml, 20 hr; for No. of subjects responding: IFN-γ; for Magnitude of response: IFN-γ spots (FIG. 1: SFC/10^6 PBMC; no unit in table). In kind it is cell-based, human. In a few lines: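 PBMC (200,000/well, triplicate) from HCMV-seropositive donors were stimulated for 20 h at 37 °C with 15-mer peptide pools (2 ug/ml) or single peptides (10 ug/ml). IFN-γ spots were counted by Fluorospot. Positivity required ≥20 SFC/10^6 PBMC over DMSO background, stimulation index >2 and p<0.05.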

Where no end group is shown, it is not given here.

Take 192 (QVEILKPRGVRHRAI) [compound 192]: the “No. of subjects responding” value was determined as 9 and the Magnitude of response was 3468.
222 (PSQEILLLCARHLDE) [compound 222]: the “No. of subjects responding” value is on record as 3 and the Magnitude of response was 110.
Taken in the same sequence, the figures for 95 (TMRKLKRKQALVKEQ) [compound 95] were 1 and 1563.
Taken in the same sequence, the figures for 16 (HENGIYYGTRSMRKL) [compound 16] were 1 and 827.
Taken in the same sequence, the figures for 196 (PTWSTTVNAHNSFLH) [compound 196] were 1 and 47.
For the substance 228 (LRYKWLIRKDRFIVR) [compound 228], the “No. of subjects responding” value is listed as 1 and the Magnitude of response is reported as 3247.
As for 160 (ISLVTPLTINATLRL) [compound 160], the “No. of subjects responding” value was 1 and the Magnitude of response was found to be 317.
Consider 23 (DFLRVVRQQDAFICT) [compound 23], for which the “No. of subjects responding” value is 2 and the Magnitude of response was determined as 174.
For 61 (ASKIKMLETRVTLAL) [compound 61], in that order: 1 and 140.
In the case of 17 (FCRRFFFPDRPDFFL) [compound 17], the “No. of subjects responding” value is 1 and the Magnitude of response is on record as 107.
On to 177 (STPFLMEHTMPVTHP) [compound 177], for which the “No. of subjects responding” value is on record as 4 and the Magnitude of response worked out at 740.
As to 81 (YLFKRMIDLSSISTV) [compound 81], the “No. of subjects responding” value is given as 1 and the Magnitude of response is 67.
For 145 (VRGGIVENKSVSSVV) [compound 145], in that order: 5 and 2691.
As to 140 (MSTKRSTVPWYPITQ) [compound 140], the “No. of subjects responding” value was determined as 3 and the Magnitude of response is on record as 477.
For “118 (RPKRRVVAPFRVAAA; ends and bridges not checked) [compound 118]”, in that order: 2 and 283.
For 64 (MLFFQRYAPAFVTGY) [compound 64], in that order: 1 and 57.
Taken in the same sequence, the figures for 155 (MSATRHHRCCTLRFR) [compound 155] were 1 and 277.
For 65 (DLKYILTRLEYLYKV) [compound 65], the “No. of subjects responding” value is 1 and the Magnitude of response turned out to be 30.
As for 146 (GNLQVTYVRHYLKNH) [compound 146], the “No. of subjects responding” value amounted to 4 and the Magnitude of response was determined as 655.
As to 86 (TMRSVFEMQRIRHGA) [compound 86], the “No. of subjects responding” value was 1 and the Magnitude of response was determined as 67.
Taken in the same sequence, the figures for 235 (GLVYRELHDFYGYLQ) [compound 235] were 1 and 963.
For 198 (LFYRAVALGTLSALV) [compound 198], in that order: 3 and 2633.
Turning to “47 (LTLRRTIGTLSRLVP; ends and bridges not checked) [compound 47]”, the “No. of subjects responding” value is reported as 1 and the Magnitude of response was determined as 163.
Taken in the same sequence, the figures for “34 (LRIIRLLRASIRHEY; ends and bridges not checked) [compound 34]” were 1 and 810.
Taken in the same sequence, the figures for 161 (CRVDADLGLLYAVCL) [compound 161] were 1 and 673.
As to 163 (MFFLAIRDHDTAGGI) [compound 163], the “No. of subjects responding” value is on record as 1 and the Magnitude of response is listed as 1637.
For 67 (TDLIRFERNIVCTSM) [compound 67], in that order: 3 and 273.
For the substance 54 (RREAIVRLEKTPTCQ) [compound 54], the “No. of subjects responding” value is on record as 2 and the Magnitude of response was 407.
Taken in the same sequence, the figures for “131 (PFTVLRLSYAYRIFA; ends and bridges not checked) [compound 131]” were 1 and 33.
As to 180 (VVVGIVLCLSLASTV) [compound 180], the “No. of subjects responding” value was found to be 1 and the Magnitude of response is listed as 1417.
Regarding “50 (WPERCFIQLRSRSAL; ends and bridges not checked) [compound 50]”, the “No. of subjects responding” value is listed as 3 and the Magnitude of response is on record as 313.
For 77 (LRGYINRALAQIAEA) [compound 77], in that order: 3 and 30337.
Take 24 (ICVARLQAQPSSRHI) [compound 24]: the “No. of subjects responding” value was 1 and the Magnitude of response worked out at 37.
Taken in the same sequence, the figures for 25 (GVSSVTLLKIFSQVP) [compound 25] were 2 and 220.
With 15 (FVAESITEFLNIGLR) [compound 15], the “No. of subjects responding” value was 1 and the Magnitude of response is recorded as 530.
Taken in the same sequence, the figures for 91 (RSSWRASCVEVPKKP) [compound 91] were 1 and 370.
Taken in the same sequence, the figures for 101 (PEYIVQIQNAFETNQ) [compound 101] were 4 and 527.
For 208 (PQRLLLTALAIWQRT) [compound 208], in that order: 1 and 983.

The record behind these values is patent publication US20250332249A1, “CYTOM[…] CELL EPITOPES AND USES THEREOF” (LA JOLLA INSTITUTE FOR IMMUNOLOGY, priority 2021, published 2025).
